Results on eight compounds are retold here after paper PMC9230803, “Synthesis and Antiviral Properties against SARS-CoV-2 of Epoxybenzooxocino[4,3-b]Pyridine Derivatives” (Molecules, 2022).

One test concerns Vero E6 cells. Put plainly: cells. The test is classed as cell-based. The following applies: Chlorocebus sabaeus, Vero C1008, upper limit of concentrations tested 200 µg/mL, read-out: IC50 (the source's name).
For another test, the system named is SARS-CoV-2 virus. The test can be described thus: microbe, parasite or virus in culture. Format: cell-based. The following applies: for inhibition of virus-induced CPE development / virus replication (in words): any concentration up to the tested limit of 200 µg/mL; for selectivity index (SI): IC50/EC50 in Vero E6 cells.
Setting [1] is: cytotoxicity, uninfected Vero E6 cells, MTT.
The mark [2] stands for this setting: Severe acute respiratory syndrome coronavirus 2, Vero C1008, SARS-CoV-2 in Vero E6 cells, CPE-positive wells reduced by half, upper limit tested 200 µg/mL, read-out: EC50.
[3] abbreviates: SARS-CoV-2 in Vero E6 cells, CPE-positive wells reduced by half, upper limit tested 200 µg/mL.

Values after ≈ are worked out from the molar mass of the structure shown. Like-named read-outs stand apart in the source and are kept apart here.

For `CC(=O)c1cc2c(nc1C)CC1OC2(C)Oc2ccccc21` (stereo not shown) [Compound 3, 1-(2,5-dimethyl-11,12-dihydro-5H-5,11-epoxybenzo[7,8]oxocino[4,3-b]pyridin-3-yl)ethan-1-one], the CC50 with Vero E6 cells (setting [1]) came to 131 µg/mL (≈ 444 µM). Moreover, the EC50 in the test with SARS-CoV-2 virus (setting [2]) is more than 200 µg/mL. The “inhibition of virus-induced CPE development / virus replication (in words)” value in the test on SARS-CoV-2 virus is given as “did not affect the development of CPE”.

`CC(=NNC(=O)c1ccncc1)c1cc2c(nc1C)CC1OC2(C)Oc2ccccc21` (stereo not shown) [Compound 4a, (E,Z)-N′-(1-(2,5-dimethyl-11,12-dihydro-5H-5,11-epoxybenzo[7,8]oxocino[4,3-b]pyridin-3-yl)ethylidene)isonicotinohydrazide]: the CC50 in the test on Vero E6 cells (setting [1]) is more than 200 µg/mL. Moreover, in the test with SARS-CoV-2 virus (setting [2]), the EC50 is more than 200 µg/mL. For the same compound, the “inhibition of virus-induced CPE development / virus replication (in words)” value in the test with SARS-CoV-2 virus is “did not affect the development of CPE”.

Regarding `C/C(=N\NC(=O)c1ccccc1O)c1cc2c(nc1C)CC1OC2(C)Oc2ccccc21` (stereo not shown) [Compound 4b, (E)-N′-(1-(2,5-dimethyl-11,12-dihydro-5H-5,11-epoxybenzo[7,8]oxocino[4,3-b]pyridin-3-yl)ethylidene)-2-hydroxybenzohydrazide], the CC50 in the test on Vero E6 cells (setting [1]) is more than 200 µg/mL. Besides, in the test with SARS-CoV-2 virus (setting [2]), the EC50 was more than 200 µg/mL. In the test on SARS-CoV-2 virus, the “inhibition of virus-induced CPE development / virus replication (in words)” value is reported as “did not affect the development of CPE”.

As to `Cc1nc2c(cc1C(=O)/C=C(\O)C(=O)O)C1(C)Oc3ccccc3C(C2)O1` (stereo not shown) [Compound 5, (Z)-4-(2,5-dimethyl-11,12-dihydro-5H-5,11-epoxybenzo[7,8]oxocino[4,3-b]pyridin-3-yl)-2-hydroxy-4-oxobut-2-enoic acid], the CC50 with Vero E6 cells ([…]) was more than 200 µg/mL. The compound also came in with an EC50 in the test on SARS-CoV-2 virus (Severe acute respiratory syndrome coronavirus 2, Vero C1008) of more than 200 µg/mL. Moreover, in the test on SARS-CoV-2 virus, the “inhibition of virus-induced CPE development / virus replication (in words)” value is reported as “did not affect the development of CPE”.

As to `Cc1nc2c(cc1C(=O)/C=C1\Nc3ccccc3NC1=O)C1(C)Oc3ccccc3C(C2)O1` (stereo not shown) [Compound 6a, (Z)-3-(2-(2,5-dimethyl-11,12-dihydro-5H-5,11-epoxybenzo[7,8]oxocino[4,3-b]pyridin-3-yl)-2-oxoethylidene)-3,4-dihydroquinoxalin-2(1H)-one], the CC50 in the test with Vero E6 cells (setting [1]) is 6 µg/mL (≈ 13.7 µM). Further, in the test with SARS-CoV-2 virus (6a at 0.82 μg/mL, ten wells per concentration), the “wells presenting the CPE” value is “Eight of ten”. In the test on SARS-CoV-2 virus (6a at 2.47 μg/mL, ten wells per concentration), the “wells showing the CPE” value was “one in ten”. Besides, in the test with SARS-CoV-2 virus, the “selectivity index (SI)” value is 2.7. Moreover, the EC50 with SARS-CoV-2 virus (setting [3]) was 2.2 µg/mL (≈ 5.01 µM); in the test with SARS-CoV-2 virus (setting [2]), 2.23 µg/mL (≈ 5.07 µM). Besides, the “inhibition of virus-induced CPE development / virus replication (in words)” value in the test on SARS-CoV-2 virus is listed as “inhibition of CPE development was found”.

For `Cc1nc2c(cc1C(=O)/C=C1\Nc3ccccc3OC1=O)C1(C)Oc3ccccc3C(C2)O1` (stereo not shown) [Compound 6b, (Z)-3-(2-(2,5-dimethyl-11,12-dihydro-5H-5,11-epoxybenzo[7,8]oxocino[4,3-b]pyridin-3-yl)-2-oxoethylidene)-3,4-dihydro-2H-benzo[b][1,4]oxazin-2-one], the CC50 with Vero E6 cells (setting [1]) was more than 200 µg/mL. In addition, the EC50 in the test with SARS-CoV-2 virus (setting [2]) is more than 200 µg/mL. In the test with SARS-CoV-2 virus, the “inhibition of virus-induced CPE development / virus replication (in words)” value is recorded as “did not affect the development of CPE”.

Take `Cc1nc2c(cc1C(=O)/C=C1\Nc3ccc([N+](=O)[O-])cc3OC1=O)C1(C)Oc3ccccc3C(C2)O1` (stereo not shown) [Compound 6c, (Z)-3-(2-(2,5-dimethyl-11,12-dihydro-5H-5,11-epoxybenzo[7,8]oxocino[4,3-b]pyridin-3-yl)-2-oxoethylidene)-7-nitro-3,4-dihydro-2H-benzo[b][1,4]oxazin-2-one]: the CC50 with Vero E6 cells (setting [1]) is more than 200 µg/mL. Besides, in the test with SARS-CoV-2 virus (setting [2]), the EC50 was more than 200 µg/mL. Moreover, the “inhibition of virus-induced CPE development / virus replication (in words)” value with SARS-CoV-2 virus was “did not affect the development of CPE”.

`CCN(CC)CCOc1ccc2c(c1)C(=O)c1cc(OCCN(CC)CC)ccc1-2.Cl` [Tilorone, 2,7-bis[2-(diethylamino)ethoxy]fluoren-9-one hydrochloride, reference compound]: the “selectivity index (SI)” value in the test with SARS-CoV-2 virus is on record as 1.8. Moreover, the values for the EC50 with SARS-CoV-2 virus (setting [3]) and with SARS-CoV-2 virus (setting [2]) were 4.3 µg/mL and 4.29 µg/mL, respectively.
